Patent US8119681B2, “2-[1-phenyl-5-hydroxy or methoxy-4alpha-methyl-hexahydrocyclopenta [ƒ]indazole-5-YL]ethyl phenyl derivatives as glucocorticoid receptor ligands” (Merck Sharp & Dohme Corp., priority 2006, dated 2012)
pEC50: −log10 of the molar value. Like-named read-outs stand apart in the source and are kept apart here.

Target: T1, human GR (Homo sapiens, UniProt P04150)
T1 sequence (P04150 1-777): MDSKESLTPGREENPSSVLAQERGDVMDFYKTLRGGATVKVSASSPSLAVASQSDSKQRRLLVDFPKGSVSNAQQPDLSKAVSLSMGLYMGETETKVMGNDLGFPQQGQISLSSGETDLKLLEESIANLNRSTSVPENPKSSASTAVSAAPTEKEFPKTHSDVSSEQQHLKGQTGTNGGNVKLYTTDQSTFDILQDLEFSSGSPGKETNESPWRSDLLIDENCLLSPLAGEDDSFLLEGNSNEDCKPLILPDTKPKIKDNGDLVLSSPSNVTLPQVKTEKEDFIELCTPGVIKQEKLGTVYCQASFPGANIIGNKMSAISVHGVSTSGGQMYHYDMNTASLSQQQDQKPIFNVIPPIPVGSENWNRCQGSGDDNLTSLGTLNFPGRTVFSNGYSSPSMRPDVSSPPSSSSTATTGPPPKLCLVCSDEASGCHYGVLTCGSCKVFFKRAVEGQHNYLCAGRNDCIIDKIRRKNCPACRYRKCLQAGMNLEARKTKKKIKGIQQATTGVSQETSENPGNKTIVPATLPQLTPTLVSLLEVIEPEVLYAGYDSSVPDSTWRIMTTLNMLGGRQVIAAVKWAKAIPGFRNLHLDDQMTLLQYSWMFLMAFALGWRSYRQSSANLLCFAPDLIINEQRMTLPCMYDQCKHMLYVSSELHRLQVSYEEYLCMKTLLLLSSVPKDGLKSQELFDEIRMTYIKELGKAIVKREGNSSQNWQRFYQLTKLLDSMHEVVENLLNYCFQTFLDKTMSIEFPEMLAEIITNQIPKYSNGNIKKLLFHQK
Experiment: Transrepression Assay (GITAR), TNFα-β-lactamase reporter gene in U937 cells
Assay type: cell-based
Design: U937 cells contain an endogenous glucocorticoid receptor (GR); endogenous in cells; host or cells: U937 cells stably transfected with the TNF-α promoter/β-lactamase reporter only
Conditions: for pEC50: IP = inflection point, read-out: Transrepression U937 Cells GITAR IP; for GITAR > GRAMM % SEP: separation of GITAR Emax over GRAMMER Emax; for Emax: U-937
Summary of the method: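 Reporter readout used CCF2-AM loading for 70–90 min at room temperature after overnight (~18 h, 37 °C) PMA (5 ng/ml final) and LPS (100 ng/ml final) stimulation of compound-treated (30–45 min) TNFα-β-lactamase U937 cells expressing native GR. Activity was normalised to 100 nM dexamethasone repression.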

[1] = 100 nM dexamethasone = 100% activity, read-out: maximal activity in the transrepression assay
[2] = Table 1, U937 cells, activity repressed by 100 nM dexamethasone = 100%, read-out: Transrepression U937 Cells GITAR Emax (%)

SMILES	pEC50 (Table 1, U937 cells)	GITAR > GRAMM % SEP (Table 1) [%]	Emax [1] [%]	Emax [2] [%]	Transrepression U937 Cells GITAR Emax (%) (Table 1, U937 cells, activity repressed by 100 nM dexamethasone = 100%)
CN(C)S(=O)(=O)c1ccccc1CC[C@]1(O)CCC2=Cc3c(cnn3-c3ccc(F)cc3)C[C@@]21C [Example 138, 2-{2-[(4αS,5R)-1-(4-fluorophenyl)-5-hydroxy-4α-methyl-1,4,4α,5,6,7-hexahydrocyclopenta[f]indazol-5-yl]ethyl}-N,N-dimethylbenzenesulfonamide]	6.67	17	5 to 100	72	
CCS(=O)(=O)c1ccccc1CC[C@]1(O)CCC2=Cc3c(cnn3-c3ccc(F)cc3)C[C@@]21C [Example 143, (4αS,5R)-5-{2-[2-(ethylsulfonyl)phenyl]ethyl}-1-(4-fluorophenyl)-4α-methyl-1,4,4α,5,6,7-hexahydrocyclopenta[f]indazol-5-ol]	6.71	29	5 to 100	70	
C[C@]12Cc3cnn(-c4ccc(F)cc4)c3C=C1CC[C@@]2(O)CCc1ccccc1S(=O)(=O)C1CC1 [Example 144, (4αS,5R)-5-{2-[2-(cyclopropylsulfonyl)phenyl]ethyl}-1-(4-fluorophenyl)-4α-methyl-1,4,4α,5,6,7-hexahydrocyclopenta[f]indazol-5-ol]	6.67		5 to 100	70	
C[C@]12Cc3cnn(-c4ccc(F)cc4)c3C=C1CC[C@@]2(O)CCc1cccc(F)c1CO [Example 148, (4αS,5R)-5-{2-[3-fluoro-2-(hydroxymethyl)phenyl]ethyl}-1-(4-fluorophenyl)-4α-methyl-1,4,4α,5,6,7-hexahydrocyclopenta[f]indazol-5-ol]	7.34	18	5 to 100	75	
C[C@]12Cc3cnn(-c4ccc(F)cc4)c3C=C1CC[C@@]2(O)CCc1cccc(F)c1[C@H](N)C(F)(F)F [Example 151, (4αS,5R)-5-(2-{2-[(1S)-1-amino-2,2,2-trifluoroethyl]-3-fluorophenyl}ethyl)-1-(4-fluorophenyl)-4α-methyl-1,4,4α,5,6,7-hexahydrocyclopenta[f]indazol-5-ol]	6.68	33	5 to 100	76	
C[C@]12Cc3cnn(-c4ccc(F)cc4)c3C=C1CC[C@@]2(O)CCc1cccc(F)c1[C@@H](N)C(F)(F)F [Example 152, (4αS,5R)-5-(2-{2-[(1R)-1-amino-2,2,2-trifluoroethyl]-3-fluorophenyl}ethyl)-1-(4-fluorophenyl)-4α-methyl-1,4,4α,5,6,7-hexahydrocyclopenta[f]indazol-5-ol]	6.61	34	5 to 100	77	
C[C@]12Cc3cnn(-c4ccc(F)cc4)c3C=C1CC[C@@]2(O)CCc1ccccc1C(=O)N1CC(=O)C1 [Example 156, 1-(2-{2-[(4αS,5R)-1-(4-fluorophenyl)-5-hydroxy-4α-methyl-1,4,4α,5,6,7-hexahydrocyclopenta[f]indazol-5-yl]ethyl}benzoyl)azetidin-3-one]	6.72	22	5 to 100	69	
CC(=O)Cc1ccccc1CC[C@]1(O)CCC2=Cc3c(cnn3-c3ccc(F)cc3)C[C@@]21C [Example 157, 1-(2-{2-[(4αS,5R)-1-(4-fluorophenyl)-5-hydroxy-4α-methyl-1,4,4α,5,6,7-hexahydrocyclopenta[f]indazol-5-yl]ethyl}phenyl)acetone]	6.71	18	5 to 100	63	
C[C@]12Cc3cnn(-c4ccc(F)cc4)c3C=C1CC[C@@]2(O)/C=C/c1ccccc1S(N)(=O)=O [Example 160, 2-{(E)-2-[(4αS,5R)-1-(4-fluorophenyl)-5-hydroxy-4α-methyl-1,4,4α,5,6,7-hexahydrocyclopenta[f]indazol-5-yl]vinyl}benzenesulfonamide]	6.56	42			72
C[C@]12Cc3cnn(-c4ccc(F)cc4)c3C=C1CC[C@@]2(O)CCc1ccc(F)cc1C#N [Example 163, 5-fluoro-2-{2-[(4αS,5R)-1-(4-fluorophenyl)-5-hydroxy-4α-methyl-1,4,4α,5,6,7-hexahydrocyclopenta[f]indazol-5-yl]ethyl}benzonitrile]	6.52	23	5 to 100	70	
Cc1ccc(C(N)=O)c(CC[C@]2(O)CCC3=Cc4c(cnn4-c4ccc(F)cc4)C[C@@]32C)c1 [Example 174, 2-{2-[(4αS,5R)-1-(4-fluorophenyl)-5-hydroxy-4α-methyl-1,4,4α,5,6,7-hexahydrocyclopenta[f]indazol-5-yl]ethyl}-4-methylbenzamide]	6.74	41	5 to 100	77	
COc1cccc(CC[C@]2(O)CCC3=Cc4c(cnn4-c4ccc(F)cc4)C[C@@]32C)c1C(N)=O [Example 189, 2-{2-[(4αS,5R)-1-(4-fluorophenyl)-5-hydroxy-4α-methyl-1,4,4α,5,6,7-hexahydrocyclopenta[f]indazol-5-yl]ethyl}-6-methoxybenzamide]	7.64	31	5 to 100	80	
C[C@]12Cc3cnn(-c4ccc(F)cc4)c3C=C1CC[C@@]2(O)CCc1cccc(F)c1CC(N)=O [Example 194, 2-(2-fluoro-6-{2-[(4αS,5R)-1-(4-fluorophenyl)-5-hydroxy-4α-methyl-1,4,4α,5,6,7-hexahydrocyclopenta[f]indazol-5-yl]ethyl}phenyl)acetamide]	7.06	41	5 to 100	78	

More lines, main results first:

pEC50 (Table 1, U937 cells)	GITAR > GRAMM % SEP (Table 1) [%]	Emax [1] [%]	Emax [2] [%]	SMILES	Transrepression U937 Cells GITAR Emax (%) (Table 1, U937 cells, activity repressed by 100 nM dexamethasone = 100%)
6.90	36	5 to 100	73	C[C@]12Cc3cnn(-c4ccc(F)cc4)c3C=C1CC[C@@]2(O)CCc1ccc(F)cc1C(N)=O [Example 159, 5-fluoro-2-{2-[(4αS,5R)-1-(4-fluorophenyl)-5-hydroxy-4α-methyl-1,4,4α,5,6,7-hexahydrocyclopenta[f]indazol-5-yl]ethyl}benzamide]	
7.28	19	5 to 100	77	C[C@]12Cc3cnn(-c4ccc(F)c(F)c4)c3C=C1CC[C@@]2(O)CCc1cccc(F)c1C(N)=O [Example 168, 2-{2-[(4α,5R)-1-(3,4-difluorophenyl)-5-hydroxy-4α-methyl-1,4,4α,5,6,7-hexahydrocyclopenta[f]indazol-5-yl]ethyl}-6-fluorobenzamide]	
6.65	42	5 to 100	66	C[C@]12Cc3cnn(-c4ccc(F)cc4)c3C=C1CC[C@@]2(O)CCc1ccc(Cl)cc1C(N)=O [Example 170, 5-chloro-2-{2-[(4αS,5R)-1-(4-fluorophenyl)-5-hydroxy-4α-methyl-1,4,4α,5,6,7-hexahydrocyclopenta[f]indazol-5-yl]ethyl}benzamide]	
6.86	36	5 to 100	78	C[C@]12Cc3cnn(-c4ccc(F)c(F)c4)c3C=C1CC[C@@]2(O)CCc1ccccc1C(N)=O [Example 172, 2-{2-[(4αS,5R)-1-(3,4-difluorophenyl)-5-hydroxy-4α-methyl-1,4,4α,5,6,7-hexahydrocyclopenta[f]indazol-5-yl]ethyl}benzamide]	
7.23	41	5 to 100	80	C[C@]12Cc3cnn(-c4ccc(Cl)cc4)c3C=C1CC[C@@]2(O)CCc1cccc(F)c1C(N)=O [Example 185, 2-{2-[(4αS,5R)-1-(4-chlorophenyl)-5-hydroxy-4α-methyl-1,4,4α,5,6,7-hexahydrocyclopenta[f]indazol-5-yl]ethyl}-6-fluorobenzamide]	
7.48	29	5 to 100	78	Cc1cccc(CC[C@]2(O)CCC3=Cc4c(cnn4-c4cccc(F)c4)C[C@@]32C)c1C(N)=O [Example 191, 2-{2-[(4αS,5R)-1-(3-fluorophenyl)-5-hydroxy-4α-methyl-1,4,4α,5,6,7-hexahydrocyclopenta[f]indazol-5-yl]ethyl}-6-methylbenzamide]	
